Several values for one entry are separate records, joined by “and”; a condition that tells them apart may be missing. Identical values can stand only once.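 In this assay, cells in 96-well plates receive the compound at five concentrations for 48 hours. Endpoints are linearly interpolated between the surrounding concentrations. GI50 marks 50% less growth. TGI: total growth inhibition.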
Columns and labels:
Assay in all cases: inhibition of tumour cell growth, NCI panel, 48 h
UACC-62 melanoma = system: UACC-62 melanoma
NCI-H226 lung = system: NCI-H226 lung
OVCAR-8 ovarian = system: OVCAR-8 ovarian
M14 melanoma = system: M14 melanoma
NCI-H460 lung = system: NCI-H460 lung
NCI/ADR-RES ovarian = system: NCI/ADR-RES ovarian
COLO 205 colon = system: COLO 205 colon
OVCAR-5 ovarian = system: OVCAR-5 ovarian
SW-620 colon = system: SW-620 colon
SF-268 CNS = system: SF-268 CNS
U251 CNS = system: U251 CNS
SNB-19 CNS = system: SNB-19 CNS
DU-145 prostate = system: DU-145 prostate
MALME-3M melanoma = system: MALME-3M melanoma
A498 renal = system: A498 renal
EKVX NSCLC = system: EKVX NSCLC
HCC-2998 colon = system: HCC-2998 colon
MOLT-4 leukemia = system: MOLT-4 leukemia
HL-60(TB) leukemia = system: HL-60(TB) leukemia
NCI-H23 lung = system: NCI-H23 lung
SR leukemia = system: SR leukemia
HS 578T breast = system: HS 578T breast
CCRF-CEM leukemia = system: CCRF-CEM leukemia
SN12C renal = system: SN12C renal
HOP-92 NSCLC = system: HOP-92 NSCLC
TK-10 renal = system: TK-10 renal
MCF7 breast = system: MCF7 breast
SK-MEL-5 melanoma = system: SK-MEL-5 melanoma
SF-539 CNS = system: SF-539 CNS
CAKI-1 renal = system: CAKI-1 renal
KM12 colon = system: KM12 colon
786-0 renal = system: 786-0 renal
HT29 colon = system: HT29 colon
ACHN renal = system: ACHN renal
MDA-N = system: MDA-N
LOX IMVI melanoma = system: LOX IMVI melanoma
SF-295 CNS = system: SF-295 CNS
OVCAR-3 ovarian = system: OVCAR-3 ovarian
RPMI-8226 leukemia = system: RPMI-8226 leukemia
HCT-15 colon = system: HCT-15 colon
PC-3 prostate = system: PC-3 prostate
A549 NSCLC = system: A549 NSCLC
HCT-116 colon = system: HCT-116 colon
MDA-MB-231 breast = system: MDA-MB-231 breast
UO-31 renal = system: UO-31 renal
NCI-H522 lung = system: NCI-H522 lung
SK-OV-3 ovarian = system: SK-OV-3 ovarian
SK-MEL-28 melanoma = system: SK-MEL-28 melanoma
HOP-62 NSCLC = system: HOP-62 NSCLC
K-562 leukemia = system: K-562 leukemia
BT-549 breast = system: BT-549 breast
MDA-MB-435 = system: MDA-MB-435
IGROV1 ovarian = system: IGROV1 ovarian
T-47D breast = system: T-47D breast
UACC-257 melanoma = system: UACC-257 melanoma
RXF 393 renal = system: RXF 393 renal
SK-MEL-2 melanoma = system: SK-MEL-2 melanoma
SNB-75 CNS = system: SNB-75 CNS
OVCAR-4 ovarian = system: OVCAR-4 ovarian
HOP-18 NSCLC = system: HOP-18 NSCLC
DMS 114 small cell lung = system: DMS 114 small cell lung
DMS 273 small cell lung = system: DMS 273 small cell lung
DLD-1 colon = system: DLD-1 colon

Q: Which results are given for `CCCCCCCCCCCCCCCCP(=O)(O)OP(=O)(O)OCC1OC(n2ccc(N)nc2=O)C(O)C1O` (centres undefined)?
A: GI50 (UACC-62 melanoma): 44.5 µM and 9.63 µM; TGI (UACC-62 melanoma): > 100 µM; GI50 (NCI-H226 lung): 64.5 µM and 21.6 µM; TGI (NCI-H226 lung): > 100 µM and 78.9 µM; TGI (OVCAR-8 ovarian): > 100 µM and 51.3 µM; TGI (M14 melanoma): > 100 µM; TGI (NCI-H460 lung): > 100 µM; TGI (NCI/ADR-RES ovarian): > 100 µM; GI50 (COLO 205 colon): 54.7 µM and 19 µM; TGI (COLO 205 colon): > 100 µM; TGI (OVCAR-5 ovarian): 65.3 µM and > 64.4 µM; GI50 (SW-620 colon): > 100 µM and 14.4 µM; TGI (SW-620 colon): > 100 µM and 59 µM; GI50 (SF-268 CNS): 83.3 µM and 41.4 µM; TGI (SF-268 CNS): > 100 µM; GI50 (U251 CNS): 43.1 µM and 13.5 µM; TGI (U251 CNS): > 100 µM and 38 µM; GI50 (SNB-19 CNS): 70.5 µM and 16.1 µM; TGI (SNB-19 CNS): > 100 µM; TGI (DU-145 prostate): > 100 µM; GI50 (MALME-3M melanoma): > 100 µM and 14 µM; TGI (MALME-3M melanoma): > 100 µM and 50.3 µM; TGI (A498 renal): > 47.9 µM; TGI (EKVX NSCLC): > 100 µM; GI50 (HCC-2998 colon): 99.7 µM and 17 µM; TGI (HCC-2998 colon): > 100 µM and 91.2 µM; TGI (MOLT-4 leukemia): > 100 µM and 22.7 µM; TGI (HL-60(TB) leukemia): > 100 µM; GI50 (NCI-H23 lung): > 100 µM and 13.9 µM; TGI (NCI-H23 lung): > 100 µM; TGI (SR leukemia): 23.7 µM; GI50 (HS 578T breast): 83.2 µM and 29.2 µM; TGI (HS 578T breast): > 100 µM; TGI (CCRF-CEM leukemia): > 100 µM and 21.4 µM; GI50 (SN12C renal): 54.5 µM and 9.05 µM; TGI (SN12C renal): > 100 µM; GI50 (HOP-92 NSCLC): 65.3 µM and 17.6 µM; TGI (HOP-92 NSCLC): > 100 µM and 67.4 µM; TGI (TK-10 renal): > 100 µM; GI50 (MCF7 breast): > 100 µM and 11.4 µM; TGI (MCF7 breast): > 100 µM; GI50 (SK-MEL-5 melanoma): > 100 µM and 11.2 µM; TGI (SK-MEL-5 melanoma): > 100 µM and 34.3 µM; TGI (SF-539 CNS): 36.3 µM and 88.6 µM; GI50 (CAKI-1 renal): 75.8 µM and 11.9 µM; TGI (CAKI-1 renal): > 100 µM; TGI (KM12 colon): > 100 µM; TGI (786-0 renal): > 100 µM and 27.6 µM; GI50 (HT29 colon): > 100 µM and 19.9 µM; TGI (HT29 colon): > 100 µM; TGI (ACHN renal): > 100 µM and 37.1 µM; GI50 (MDA-N): > 100 µM and 40.4 µM; TGI (MDA-N): > 100 µM; TGI (LOX IMVI melanoma): > 100 µM; GI50 (SF-295 CNS): 43 µM and 20.5 µM; TGI (SF-295 CNS): > 100 µM and 56.5 µM; TGI (OVCAR-3 ovarian): > 100 µM; GI50 (RPMI-8226 leukemia): > 100 µM and 35.1 µM; TGI (RPMI-8226 leukemia): > 100 µM; GI50 (HCT-15 colon): 97.5 µM and 19.3 µM; TGI (HCT-15 colon): > 100 µM; GI50 (PC-3 prostate): 37.8 µM and 10.8 µM; TGI (PC-3 prostate): > 100 µM; TGI (A549 NSCLC): > 100 µM; TGI (HCT-116 colon): > 100 µM and 37.4 µM; GI50 (MDA-MB-231 breast): > 100 µM and 37.9 µM; TGI (MDA-MB-231 breast): > 100 µM; TGI (UO-31 renal): > 100 µM and 28 µM; GI50 (NCI-H522 lung): > 100 µM and 24.6 µM; TGI (NCI-H522 lung): > 100 µM; GI50 (SK-OV-3 ovarian): > 100 µM and 11 µM; TGI (SK-OV-3 ovarian): > 100 µM and 72.6 µM; TGI (SK-MEL-28 melanoma): > 100 µM; GI50 (HOP-62 NSCLC): 31.5 µM and 4.41 µM; TGI (HOP-62 NSCLC): 97.3 µM and 44.6 µM; TGI (K-562 leukemia): > 100 µM; GI50 (BT-549 breast): > 100 µM and 24.3 µM; TGI (BT-549 breast): > 100 µM; GI50 (MDA-MB-435): > 100 µM and 14.6 µM; TGI (MDA-MB-435): > 100 µM; GI50 (IGROV1 ovarian): 62.4 µM and 26 µM; TGI (IGROV1 ovarian): > 100 µM; TGI (T-47D breast): > 100 µM; GI50 (UACC-257 melanoma): > 100 µM and 41.8 µM; TGI (UACC-257 melanoma): > 100 µM; GI50 (RXF 393 renal): 62.6 µM and 19.8 µM; TGI (RXF 393 renal): > 100 µM and 41.1 µM; TGI (SK-MEL-2 melanoma): > 100 µM; TGI (SNB-75 CNS): 60.6 µM and 45.8 µM; GI50 (OVCAR-4 ovarian): 91.4 µM and 43.8 µM; TGI (OVCAR-4 ovarian): > 100 µM

Q: For `O=C1[C@H]2C(c3ccccc3)=NN(C(=O)c3ccccc3)[C@H]2C(=O)N1c1ccccc1`, which TGI (UACC-62 melanoma) is on record?
A: The TGI was over 100 µM.

Q: And the TGI (NCI-H226 lung)?
A: Its TGI is over 100 µM.

Q: What about the TGI (OVCAR-8 ovarian) of the same molecule?
A: The TGI was over 100 µM.

Q: What about the TGI (M14 melanoma) of the same molecule?
A: Its TGI is over 100 µM.

Q: And the TGI (NCI-H460 lung)?
A: Its TGI is over 100 µM.

Q: And the TGI (COLO 205 colon)?
A: Its TGI is over 100 µM.

Q: What about the TGI (SW-620 colon) of the same molecule?
A: The TGI was over 100 µM.

Q: What about the TGI (HOP-18 NSCLC) of the same molecule?
A: The TGI was over 100 µM.

Q: What about the TGI (U251 CNS) of the same molecule?
A: The TGI was over 100 µM.

Q: What about the TGI (SNB-19 CNS) of the same molecule?
A: Its TGI is over 100 µM.

Q: And the TGI (MALME-3M melanoma)?
A: The TGI was over 100 µM.

Q: And the TGI (EKVX NSCLC)?
A: The TGI was over 100 µM.

Q: And the TGI (MOLT-4 leukemia)?
A: The TGI was over 100 µM.

Q: And the TGI (NCI-H23 lung)?
A: The TGI was over 100 µM.

Q: And the TGI (CCRF-CEM leukemia)?
A: The TGI was over 100 µM.

Q: What about the TGI (SN12C renal) of the same molecule?
A: Its TGI is over 100 µM.

Q: What about the TGI (DMS 114 small cell lung) of the same molecule?
A: The TGI was over 100 µM.

Q: And the TGI (TK-10 renal)?
A: The TGI was over 100 µM.

Q: And the TGI (SF-539 CNS)?
A: The TGI was over 100 µM.

Q: What about the TGI (KM12 colon) of the same molecule?
A: Its TGI is over 100 µM.

Q: And the TGI (786-0 renal)?
A: The TGI was over 100 µM.

Q: And the TGI (HT29 colon)?
A: The TGI was over 100 µM.

Q: What about the TGI (ACHN renal) of the same molecule?
A: The TGI was over 100 µM.

Q: And the TGI (DMS 273 small cell lung)?
A: Its TGI is over 100 µM.

Q: What about the TGI (LOX IMVI melanoma) of the same molecule?
A: Its TGI is over 100 µM.

Q: And the TGI (SF-295 CNS)?
A: The TGI was over 100 µM.

Q: What about the TGI (OVCAR-3 ovarian) of the same molecule?
A: Its TGI is over 100 µM.

Q: What about the TGI (DLD-1 colon) of the same molecule?
A: Its TGI is over 100 µM.

Q: What about the TGI (RPMI-8226 leukemia) of the same molecule?
A: The TGI was over 100 µM.

Q: And the TGI (HCT-15 colon)?
A: The TGI was over 100 µM.

Q: And the TGI (A549 NSCLC)?
A: Its TGI is over 100 µM.

Q: And the TGI (HCT-116 colon)?
A: The TGI was over 100 µM.

Q: What about the TGI (UO-31 renal) of the same molecule?
A: Its TGI is over 100 µM.

Q: What about the TGI (NCI-H522 lung) of the same molecule?
A: The TGI was over 100 µM.

Q: What about the TGI (SK-OV-3 ovarian) of the same molecule?
A: Its TGI is over 100 µM.

Q: And the TGI (SK-MEL-28 melanoma)?
A: Its TGI is over 100 µM.

Q: What about the TGI (HOP-62 NSCLC) of the same molecule?
A: Its TGI is over 100 µM.

Q: What about the TGI (K-562 leukemia) of the same molecule?
A: Its TGI is over 100 µM.

Q: What about the TGI (IGROV1 ovarian) of the same molecule?
A: Its TGI is over 100 µM.

Q: And the TGI (UACC-257 melanoma)?
A: The TGI was over 100 µM.

Q: What about the TGI (RXF 393 renal) of the same molecule?
A: The TGI was over 100 µM.

Q: What about the TGI (SK-MEL-2 melanoma) of the same molecule?
A: Its TGI is over 100 µM.

Q: And the TGI (SNB-75 CNS)?
A: Its TGI is over 100 µM.

Source: PubChem BioAssay (NCI)
